Data on one molecule can be found in article PMC13002968 (Oncogenesis, 2026).

The experiment has as its target programmed cell death protein 1 (PD-1) (Homo sapiens, UniProt Q15116). Kind of experiment: SPR. In kind it is binding.

SMILES strings stand for the structures.

programmed cell death protein 1 (PD-1), sequence (Q15116 25-288): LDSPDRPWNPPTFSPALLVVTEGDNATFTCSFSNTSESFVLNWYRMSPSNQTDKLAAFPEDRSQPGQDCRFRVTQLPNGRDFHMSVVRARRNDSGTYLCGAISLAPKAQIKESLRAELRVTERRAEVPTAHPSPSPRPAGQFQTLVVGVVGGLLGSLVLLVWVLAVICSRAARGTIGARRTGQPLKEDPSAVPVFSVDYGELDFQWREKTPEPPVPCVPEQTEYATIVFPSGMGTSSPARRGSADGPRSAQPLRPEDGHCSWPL

`C/C(O)=C(\C#N)C(=O)Nc1ccc(C(F)(F)F)cc1` [TER, teriflunomide] registered a Kd of 1.47 nM.

The term Kd denotes the equilibrium constant for the complex coming apart. A lower Kd goes with a tighter complex.
